We go through 2 molecules from patent publication US9242941B2, “Alkyl, fluoroalkyl-1,4-benzodiazepinone compounds” (BRISTOL-MYERS SQUIBB COMPANY, priority 2012, dated 2016).

Data set [1] relates to human PAT70 pancreatic carcinoma cell line. The experiment in a line: Human Tumor Xenograft Models in Mice: PAT70. The data set is classed as in vivo. The conditions noted are these: PO, QDx15 (10 day on-2 day off-5 day on); FIG. 16; result in words. On the procedure: (§1) Dosed orally; PO, QDx15 (10 day on-2 day off-5 day on). Each symbol represents the median tumor burden of a group of 8 mice.
(§2) Human Tumor Xenograft Models in Mice
(§3) Mice were fed food and water ad libitum.
(§4) Preclinical Chemotherapy Trials
(§5) Tumor growth inhibition is calculated as follows: […]
(§6) In Vivo Antitumor Activity
On the technique in general: Xenograft models place foreign cells or tissue in a host animal.

Another data set relates to human Notch 3. As to the kind of experiment: Notch-CBF1 Transactivation Assay (Notch 3). The data set is classed as cell-based. The conditions noted are these: read-out: Notch 3 IC50; Notch-CBF1 transactivation luciferase assay in transfected HeLa cells; some values are an average of N experiments. The method in brief:
(§7)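 HeLa cells transiently co-transfected with a truncated Notch receptor plus a 4×CBF1-site luciferase reporter were exposed to compounds (5 μM to 8.4×10^−5 μM, 3-fold dilutions) for 18 hours at 37° C. Luciferase was read after Steady-Glo. Inhibition was normalized between DMSO (total) and 0.5 μM in-house inhibitor (background) wells.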

Data set [2] in a line: human metabolic stability half-life assay. The conditions noted are these: microsomes, human liver microsomes. Here is the method:
Metabolic Stability Half-Life Panel
Incubation with Liver Microsomes
A general note: Liver microsomes are a subcellular fraction often used to study metabolism.

Data set [3] relates to human triple negative breast carcinoma cell line MDA-MB-468. As to the kind of experiment: Human Tumor Xenograft Models in Mice: MDA-MB-468. The conditions noted are these: PO, QDx15 (10 day on-2 day off-5 day on); FIG. 15; result in words. It counts as in vivo. On the procedure: as §1, §2, §3, §4, §5, §6
Data set [4] relates to human triple negative breast carcinoma cell line MDA-MB-157. As to the kind of experiment: Human Tumor Xenograft Models in Mice: MDA-MB-157. It counts as in vivo. The conditions noted are these: PO, QDx15 (10 day on-2 day off-5 day on); FIG. 14; result in words. Here is the method:
as §1, §2, §3, §4, §5, §6

The test system of data set [5] is Human T-cell acute lymphoblastic leukemia cell line TALL-1. The experiment in a line: Human Tumor Xenograft Models in Mice: TALL-1. It counts as in vivo. The conditions noted are these: for Antitumor Activity in TALL-1 (LCK), QD dosing: Log Cell Kill, oral administration, schedule QDx10, dose 20 (Ex 1, 52), 12 (Ex 10), 40 (Ex 40), dose unit not given; for antitumor activity in the Human Tumor Xenograft Models in mice: oral administration (PO) either BID and/or QD, Table 24 (TALL-1).

The test system of another data set is human Notch 1. As to the kind of experiment: Notch-CBF1 Transactivation Assay (Notch 1). The conditions noted are these: read-out: Notch 1 IC50; Notch-CBF1 transactivation luciferase assay in transfected HeLa cells; some values are an average of N experiments. The data set is classed as cell-based. Put shortly: as §7
[6] abbreviates: pH 7.4, CYP-mediated metabolic stability half life, NADPH-dependent.
The mark [7] stands for this setting: pH 7.4, HLM (t1/2, min), CYP-mediated (NADPH-dependent), 0.5 μM compound, 45 min time course, some values are an average of N experiments.

In general, IC50 refers to the midpoint of a concentration-inhibition curve. Broadly, the half-life is the time in which the quantity being followed falls by half. A higher half-life goes with slow loss. In the case of `NC(=O)[C@@H](CC1CC1)[C@@H](CCC(F)(F)F)C(=O)N[C@H]1N=C(c2ccccc2)c2cccc(F)c2NC1=O` [Example 1, (2R,3S)-3-(Cyclopropylmethyl)-N-((3S)-9-fluoro-2-oxo-5-phenyl-2,3-dihydro-1H-1,4-benzodiazepin-3-yl)-2-(3,3,3-trifluoropropyl)succinamide], the “in vivo antitumor activity, PAT70 xenograft” value in data set [1] is reported as “exhibited antitumor activity”. The IC50 in the data set with human Notch 3 was determined as 6.2 nM; in the data set with human Notch 1 it was 4.2 nM. Further, the results for the half-life at 0.5 µM in data set [2] (setting [6]) and in data set [2] (setting [7]) were ≥ 30 min and 85 min, respectively. The “in vivo antitumor activity, MDA-MB-468 xenograft” value in data set [3] is recorded as “exhibited antitumor activity”. Further, in data set [4], the “in vivo antitumor activity, MDA-MB-157 xenograft” value is reported as “exhibited antitumor activity”. In data set [5], the “Antitumor Activity in TALL-1 (LCK), QD dosing” value was determined as 4.5. Further, the “in vivo antitumor activity, TALL-1 xenograft” value in data set [5] (PO, QDx10, FIGS. 12-13, result in words) is “exhibited antitumor activity”. The “antitumor activity in the Human Tumor Xenograft Models in mice” value in data set [5] (result in words) is “showed antitumor activity”.

Consider `CCC[C@H](C(N)=O)[C@@H](CCC(F)(F)F)C(=O)N[C@H]1N=C(c2ccccc2)c2cccc(OC)c2NC1=O` [Example 40, (2R,3S)—N-((3S)-9-Methoxy-2-oxo-5-phenyl-2,3-dihydro-1H-1,4-benzodiazepin-3-yl)-3-propyl-2-(3,3,3-trifluoropropyl)succinamide], for which the IC50 came out at 6.9 nM in the data set on human Notch 3 and 6.8 nM in the data set with human Notch 1. In addition, the half-life at 0.5 µM in data set [2] (setting [6]) is ≥ 30 min; in data set [2] (setting [7]), 34 min. In addition, the “Antitumor Activity in TALL-1 (LCK), QD dosing” value in data set [5] came to 1.4. Besides, in data set [5] (result in words), the “antitumor activity in the Human Tumor Xenograft Models in mice” value is on record as “showed antitumor activity”.
